{
  "source": "paper PMC8252455",
  "about": "“Prediction of a clinically effective dose of THY1773, a novel V 1B receptor antagonist, based on preclinical data” (Biopharmaceutics & Drug Disposition, 2021)",
  "origin": "cited, not measured here",
  "tested_on": "depressive symptoms",
  "parameters": "method as in Griebel, Beeské, & Stahl, 2012",
  "conditions": "patients with MDD; ref Griebel, Beeské, & Stahl, 2012; cited from earlier work",
  "data": [
    {"smiles": "COc1ccc(S(=O)(=O)N2C(=O)[C@@](c3ccccc3OC)(N3C[C@H](O)C[C@H]3C(=O)N(C)C)c3cc(Cl)ccc32)c(OC)c1", "note": "[SSR149415]", "values": [
      {"measurement": "Antidepressant effect in MDD trials", "result": "failed to demonstrate clear antidepressant effects"}
    ]}
  ]
}
